Where a name gives a salt, the structure may show the parent alone.
melting point	SMILES
221 °C	Cc1ccc2ccc(CCN3CC=C(c4cccc(C(F)(F)F)c4)CC3)cc2n1 (as salt: hydrochloride)
230 °C	CCc1cc2ccc(CCN3CC=C(c4cccc(C(F)(F)F)c4)CC3)cc2cn1 (as salt: hydrochloride)

Reference: US6509351B1, “Phenyl- and pyridyl-tetrahydro-pyridines having TNF inhibiting activity” (Sanofi-Syntelabo, priority 1999, dated 2003)
